Measurements taken from US12195482B1 (Arcus Biosciences, Inc., priority 2022, dated 2025).

What was measured:
recombinant human MER = target: T1, recombinant human MER (Homo sapiens, UniProt Q12866); assay: Biochemical potency, HTRF KinEASE-TK kinase assay; conditions: 1 nM MER, 700 μM ATP
T1 construct: purchased Invitrogen
T1 sequence (Q12866 21-999): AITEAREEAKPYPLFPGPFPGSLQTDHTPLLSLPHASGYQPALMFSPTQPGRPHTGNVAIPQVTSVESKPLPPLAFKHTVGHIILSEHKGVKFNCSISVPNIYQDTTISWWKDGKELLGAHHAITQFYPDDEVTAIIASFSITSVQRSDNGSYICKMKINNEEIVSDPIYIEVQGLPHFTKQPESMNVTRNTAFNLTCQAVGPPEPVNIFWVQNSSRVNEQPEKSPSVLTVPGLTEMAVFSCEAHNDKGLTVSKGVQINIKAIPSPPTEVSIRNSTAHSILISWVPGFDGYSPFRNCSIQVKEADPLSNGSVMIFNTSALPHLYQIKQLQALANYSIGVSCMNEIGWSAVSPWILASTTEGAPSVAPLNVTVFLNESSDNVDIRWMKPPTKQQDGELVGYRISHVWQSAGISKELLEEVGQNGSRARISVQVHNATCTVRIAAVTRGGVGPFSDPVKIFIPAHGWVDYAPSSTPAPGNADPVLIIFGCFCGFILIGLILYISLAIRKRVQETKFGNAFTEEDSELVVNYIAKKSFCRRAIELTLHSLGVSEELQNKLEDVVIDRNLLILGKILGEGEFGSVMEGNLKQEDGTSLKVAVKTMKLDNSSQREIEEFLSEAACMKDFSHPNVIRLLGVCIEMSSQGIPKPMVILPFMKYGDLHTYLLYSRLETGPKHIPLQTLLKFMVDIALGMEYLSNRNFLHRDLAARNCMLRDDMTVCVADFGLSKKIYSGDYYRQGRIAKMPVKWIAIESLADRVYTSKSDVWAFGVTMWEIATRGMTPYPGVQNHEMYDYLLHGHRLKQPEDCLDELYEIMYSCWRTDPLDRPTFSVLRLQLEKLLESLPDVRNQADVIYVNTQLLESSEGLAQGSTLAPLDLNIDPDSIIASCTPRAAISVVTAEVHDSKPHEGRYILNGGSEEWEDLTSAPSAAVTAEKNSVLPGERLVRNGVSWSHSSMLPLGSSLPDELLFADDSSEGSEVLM
Protocol: (§1) Measurement of Biochemical Compound Potency of Axl Inhibitors
(§2) Purified recombinant human AXL, TYRO3 and MER proteins were purchased from Invitrogen™. 10 nM AXL, 2 nM TYRO3 or MER were incubated with varying concentrations of compounds in 50 mM HEPES, pH 7.4, 10 mM MgCl2, 0.01% BSA, 1 mM DTT and 2% DMSO in a total volume of 20 μl in a 384-well microplate (Corning™ #3640) at RT for 1 h. The AXL, TYRO3 and MER enzymatic reaction was initiated by transferring 10 μl of enzyme and compound mixture into 10 μl of 1.6 μM TK Substrate-biotin (HTRF® KinEASE-TK kit, Cisbio) and 1400 μM ATP pre-incubated in 50 mM HEPES, pH 7.4, 10 mM MgCl2, 0.01% BSA, 1 mM DTT in a 384-well microplate (Corning™ #3640) at RT, giving the final reaction conditions: 5 nM AXL, 1 nM TYRO3 or MER, 800 nM TK Substrate-biotin and 700 μM ATP in 50 mM HEPES, pH 7.4, 10 mM MgCl2, 0.01% BSA, 1 mM DTT and 1% DMSO with varying concentrations of compounds. Following 2 h incubation at RT, the AXL, TYRO3 and MER enzymatic reaction was stopped by transfer of 10 μl of reaction into 10 μl of detection mix (400 nM Streptavidin-XL665, 200-fold dilution TK Antibody-Cryptate and detection buffer, HTRF® KinEASE-TK kit, Cisbio) in a white 384-well microplate (Perkin Elmer, OptiPlate 384). After 1 h incubation at RT, the plate was put into a plate reader (Evision) to read at 665/620 nm (acceptor/donor) for HTRF. The value of the DMSO blank (MIN inhibition=100% activity) was used as a negative control. The positive control was established by adding 5 μl of enzyme and DMSO mixture into 10 μl of detection mix followed by addition of 5 μl of TK Substrate-biotin and ATP mixture (MAX inhibition=0% activity). To calculate the percent activity, Equation 1 was used. Ratio665/620 is the value at a given compound concentration: […]

recombinant human TYRO3 = target: T2, recombinant human TYRO3 (Homo sapiens, UniProt Q06418); assay: Biochemical potency, HTRF KinEASE-TK kinase assay; conditions: 1 nM TYRO3, 700 μM ATP
T2 construct: purchased Invitrogen
T2 sequence (Q06418 41-890): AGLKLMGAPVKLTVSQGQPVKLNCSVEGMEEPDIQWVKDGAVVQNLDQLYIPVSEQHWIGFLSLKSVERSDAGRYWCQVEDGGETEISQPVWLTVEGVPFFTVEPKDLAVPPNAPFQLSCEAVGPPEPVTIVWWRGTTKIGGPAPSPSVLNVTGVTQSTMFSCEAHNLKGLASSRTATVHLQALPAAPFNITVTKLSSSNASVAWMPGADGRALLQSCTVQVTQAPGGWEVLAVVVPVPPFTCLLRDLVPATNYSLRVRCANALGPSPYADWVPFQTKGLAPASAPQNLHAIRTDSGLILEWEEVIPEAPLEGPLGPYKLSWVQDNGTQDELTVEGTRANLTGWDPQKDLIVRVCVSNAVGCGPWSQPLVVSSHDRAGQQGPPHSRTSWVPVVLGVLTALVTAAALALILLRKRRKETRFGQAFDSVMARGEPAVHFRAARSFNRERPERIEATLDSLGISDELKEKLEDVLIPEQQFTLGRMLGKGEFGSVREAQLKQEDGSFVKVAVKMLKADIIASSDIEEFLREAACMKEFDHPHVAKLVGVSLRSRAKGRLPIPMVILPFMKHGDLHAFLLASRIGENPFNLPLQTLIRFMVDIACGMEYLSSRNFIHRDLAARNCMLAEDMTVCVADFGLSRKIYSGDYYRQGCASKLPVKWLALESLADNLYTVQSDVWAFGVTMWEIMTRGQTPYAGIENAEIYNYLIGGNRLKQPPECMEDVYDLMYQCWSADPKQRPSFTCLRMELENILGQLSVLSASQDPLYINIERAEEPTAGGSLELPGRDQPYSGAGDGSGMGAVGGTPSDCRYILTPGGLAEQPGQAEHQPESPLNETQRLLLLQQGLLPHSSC
Protocol: as §1, §2

IC50 (recombinant human MER) [nM] | IC50 (recombinant human TYRO3) [nM] | Compound
100 to 1000 | 100 to 1000 | Cc1cc(F)cnc1-c1ccc(-c2c[nH]c3ncc(-c4ccc5c(c4)CC[C@@H](N4C6COCC4C6)CC5)cc23)cc1 [Example 29, 6-[(7S)-3-[3-[4-(5-Fluoro-3-methylpyridin-2-yl)phenyl]-1H-pyrrolo[2,3-b]pyridin-5-yl]-6,7,8,9-tetrahydro-5H-benzo[7]annulen-7-yl]-3-oxa-6-azabicyclo[3.1.1]heptane]
> 1000 | < 100 | Cc1cc(-c2ncccc2C)ccc1-c1n[nH]c2ncc(-c3ccc4c(c3)CC[C@@H](N3C5COCC3C5)CC4)cc12 [Example 30, 6-[(7S)-3-[3-[2-Methyl-4-(3-methylpyridin-2-yl)phenyl]-1H-pyrazolo[3,4-b]pyridin-5-yl]-6,7,8,9-tetrahydro-5H-benzo[7]annulen-7-yl]-3-oxa-6-azabicyclo[3.1.1]heptane]
> 1000 | > 1000 | O=c1ccccn1-c1ccc(-c2n[nH]c3ncc(-c4ccc5c(c4)CC[C@@H](N4C6COCC4C6)CC5)cc23)cc1 [Example 31, 1-[4-[5-[(7S)-7-(3-Oxa-6-azabicyclo[3.1.1]heptan-6-yl)-6,7,8,9-tetrahydro-5H-benzo[7]annulen-3-yl]-1H-pyrazolo[3,4-b]pyridin-3-yl]phenyl]pyridin-2-one]
100 to 1000 | 100 to 1000 | c1ccc(-c2ccc(-c3c[nH]c4ncc(-c5ccc6c(c5)CC[C@@H](N[C@H]5CCCOC5)CC6)cc34)cc2)nc1 [Example 32, (3S)—N-[(7S)-3-[3-(4-Pyridin-2-ylphenyl)-1H-pyrrolo[2,3-b]pyridin-5-yl]-6,7,8,9-tetrahydro-5H-benzo[7]annulen-7-yl]oxan-3-amine]
> 1000 | > 1000 | CN(C)C(=O)c1cccc(-c2ccc(-c3n[nH]c4ncc(-c5ccc6c(c5)CC[C@@H](N5C7COCC5C7)CC6)cc34)cc2)n1 [Example 94, N,N-Dimethyl-6-(4-{5-[(7S)-7-{3-oxa-6-azabicyclo[3.1.1]heptan-6-yl}-6,7,8,9-tetrahydro-5H-benzo[7]annulen-2-yl]-2H-pyrazolo[3,4-b]pyridin-3-yl}phenyl)pyridine-2-carboxamide]
< 100 | < 100 | CC(C)(O)c1cccnc1-c1ccc(-c2c[nH]c3ncc(-c4ccc5c(c4)CC[C@@H](N4C6COCC4C6)CC5)cc23)cc1 [Example 95, 2-[2-(4-{5-[(7S)-7-{3-Oxa-6-azabicyclo[3.1.1]heptan-6-yl}-6,7,8,9-tetrahydro-5H-benzo[7]annulen-2-yl]-1H-pyrrolo[2,3-b]pyridin-3-yl}phenyl)pyridin-3-yl]propan-2-ol]
100 to 1000 | < 100 | Cc1cccnc1-c1ccc(-c2c[nH]c3ncc(-c4ccc5c(c4)CC[C@@H](N4C6COCC4C6)CC5)cc23)nc1 [Example 96, 3-Methyl-6′-{5-[(7S)-7-{3-oxa-6-azabicyclo[3.1.1]heptan-6-yl}-6,7,8,9-tetrahydro-5H-benzo[7]annulen-2-yl]-1H-pyrrolo[2,3-b]pyridin-3-yl}-2,3′-bipyridine]
> 1000 | > 1000 | Cc1ccccc1-c1ccc(-c2c[nH]c3ncc(-c4ccc5c(c4)CC[C@@H](N4C6COCC4C6)CC5)cc23)nc1 [Example 97, 6-[(7S)-2-{3-[5-(2-Methylphenyl)pyridin-2-yl]-1H-pyrrolo[2,3-b]pyridin-5-yl}-6,7,8,9-tetrahydro-5H-benzo[7]annulen-7-yl]-3-oxa-6-azabicyclo[3.1.1]heptane]
> 1000 | > 1000 | Cc1ccccc1-c1ccc(-c2n[nH]c3ncc(-c4ccc5c(c4)CC[C@@H](N4C6COCC4C6)CC5)cc23)nc1 [Example 98, 6-[(7S)-2-{3-[5-(2-Methylphenyl)pyridin-2-yl]-1H-pyrazolo[3,4-b]pyridin-5-yl}-6,7,8,9-tetrahydro-5H-benzo[7]annulen-7-yl]-3-oxa-6-azabicyclo[3.1.1]heptane]
100 to 1000 | 100 to 1000 | FC(F)Oc1cccnc1-c1ccc(-c2n[nH]c3ncc(-c4ccc5c(c4)CC[C@@H](N4C6COCC4C6)CC5)cc23)cc1 [Example 99, 6-[(7S)-2-(3-{4-[3-(Difluoromethoxy)pyridin-2-yl]phenyl}-1H-pyrazolo[3,4-b]pyridin-5-yl)-6,7,8,9-tetrahydro-5H-benzo[7]annulen-7-yl]-3-oxa-6-azabicyclo[3.1.1]heptane]
> 1000 | 100 to 1000 | CC(C)(O)c1cccnc1-c1ccc(-c2n[nH]c3ncc(-c4ccc5c(c4)CC[C@@H](N4C6COCC4C6)CC5)cc23)nc1 [Example 100, 2-(6′-{5-[(7S)-7-{3-Oxa-6-azabicyclo[3.1.1]heptan-6-yl}-6,7,8,9-tetrahydro-5H-benzo[7]annulen-2-yl]-1H-pyrazolo[3,4-b]pyridin-3-yl}-[2,3′-bipyridin]-3-yl)propan-2-ol]
100 to 1000 | < 100 | CS(=O)(=O)c1cccnc1-c1ccc(-c2n[nH]c3ncc(-c4ccc5c(c4)CC[C@@H](N4C6COCC4C6)CC5)cc23)cc1 [Example 101, 6-[(7S)-2-{3-[4-(3-Methanesulfonylpyridin-2-yl)phenyl]-1H-pyrazolo[3,4-b]pyridin-5-yl}-6,7,8,9-tetrahydro-5H-benzo[7]annulen-7-yl]-3-oxa-6-azabicyclo[3.1.1]heptane]
100 to 1000 | < 100 | CS(=O)(=O)c1cccnc1-c1ccc(-c2c[nH]c3ncc(-c4ccc5c(c4)CC[C@@H](N4C6COCC4C6)CC5)cc23)cc1 [Example 102, 6-[(7S)-2-{3-[4-(3-Methanesulfonylpyridin-2-yl)phenyl]-1H-pyrrolo[2,3-b]pyridin-5-yl}-6,7,8,9-tetrahydro-5H-benzo[7]annulen-7-yl]-3-oxa-6-azabicyclo[3.1.1]heptane]
